Experimental findings from patent US11407767B2, “Heterocyclyl substituted pyrrolopyridines that are inhibitors of the CDK12 kinase” (The University of Nottingham, priority 2017, dated 2022) are described below.

For one assay, the system named is DM1 fibroblasts. Put plainly: Nuclear foci assay. The following applies: Fibroblast; DM1 fibroblasts treated for 24 hours, 11 point dilution 20 μM-19 nM, in situ hybridisation with cy3 labelled CAG10 probe. It is filed as cell-based. The procedure:
DM1 fibroblasts were treated with compounds in an 11 point dilution series from 20 μM-19 nM for 24 hours. Following treatment, fluorescent in situ hybridisation was performed with a cy3 labelled CAG10 probe, to visualize nuclear foci and cells were analysed on a Molecular Devices plate reader with customised MetaExpress software (Ketley, A. et al. (2014). Hum Mol Genet, 23: 1551-1562). Compounds that reduced nuclear foci in a concentration dependent manner, compared to DMSO treated cells were identified.

For a further assay, the target named is CDK12/CycK (Homo sapiens, UniProt Q9NYV4). Put plainly: Inhibition of CDK12 (ADP-Glo kinase assay). It is filed as biochemical. The following applies: 60 nM CDK12/CycK, 30 minutes pre-incubation, 1 μM ATP, 0.5 μM RBER-IRStide substrate, 1 h at 25° C., read-out: CDK12/cyclin K IC50. The essentials: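 ADP-Glo luminescence read after a 1 h, 25 °C reaction with 1 μM ATP and 0.5 μM RBER-IRStide peptide. Enzyme (60 nM) and compound were first pre-incubated 30 min; buffer 50 mM HEPES pH 7.5, 20 mM MgCl2, 3 mM MnCl2, 1% DMSO. IC50 fitted after blank subtraction.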
CDK12/CycK, sequence (Q9NYV4 whole entry): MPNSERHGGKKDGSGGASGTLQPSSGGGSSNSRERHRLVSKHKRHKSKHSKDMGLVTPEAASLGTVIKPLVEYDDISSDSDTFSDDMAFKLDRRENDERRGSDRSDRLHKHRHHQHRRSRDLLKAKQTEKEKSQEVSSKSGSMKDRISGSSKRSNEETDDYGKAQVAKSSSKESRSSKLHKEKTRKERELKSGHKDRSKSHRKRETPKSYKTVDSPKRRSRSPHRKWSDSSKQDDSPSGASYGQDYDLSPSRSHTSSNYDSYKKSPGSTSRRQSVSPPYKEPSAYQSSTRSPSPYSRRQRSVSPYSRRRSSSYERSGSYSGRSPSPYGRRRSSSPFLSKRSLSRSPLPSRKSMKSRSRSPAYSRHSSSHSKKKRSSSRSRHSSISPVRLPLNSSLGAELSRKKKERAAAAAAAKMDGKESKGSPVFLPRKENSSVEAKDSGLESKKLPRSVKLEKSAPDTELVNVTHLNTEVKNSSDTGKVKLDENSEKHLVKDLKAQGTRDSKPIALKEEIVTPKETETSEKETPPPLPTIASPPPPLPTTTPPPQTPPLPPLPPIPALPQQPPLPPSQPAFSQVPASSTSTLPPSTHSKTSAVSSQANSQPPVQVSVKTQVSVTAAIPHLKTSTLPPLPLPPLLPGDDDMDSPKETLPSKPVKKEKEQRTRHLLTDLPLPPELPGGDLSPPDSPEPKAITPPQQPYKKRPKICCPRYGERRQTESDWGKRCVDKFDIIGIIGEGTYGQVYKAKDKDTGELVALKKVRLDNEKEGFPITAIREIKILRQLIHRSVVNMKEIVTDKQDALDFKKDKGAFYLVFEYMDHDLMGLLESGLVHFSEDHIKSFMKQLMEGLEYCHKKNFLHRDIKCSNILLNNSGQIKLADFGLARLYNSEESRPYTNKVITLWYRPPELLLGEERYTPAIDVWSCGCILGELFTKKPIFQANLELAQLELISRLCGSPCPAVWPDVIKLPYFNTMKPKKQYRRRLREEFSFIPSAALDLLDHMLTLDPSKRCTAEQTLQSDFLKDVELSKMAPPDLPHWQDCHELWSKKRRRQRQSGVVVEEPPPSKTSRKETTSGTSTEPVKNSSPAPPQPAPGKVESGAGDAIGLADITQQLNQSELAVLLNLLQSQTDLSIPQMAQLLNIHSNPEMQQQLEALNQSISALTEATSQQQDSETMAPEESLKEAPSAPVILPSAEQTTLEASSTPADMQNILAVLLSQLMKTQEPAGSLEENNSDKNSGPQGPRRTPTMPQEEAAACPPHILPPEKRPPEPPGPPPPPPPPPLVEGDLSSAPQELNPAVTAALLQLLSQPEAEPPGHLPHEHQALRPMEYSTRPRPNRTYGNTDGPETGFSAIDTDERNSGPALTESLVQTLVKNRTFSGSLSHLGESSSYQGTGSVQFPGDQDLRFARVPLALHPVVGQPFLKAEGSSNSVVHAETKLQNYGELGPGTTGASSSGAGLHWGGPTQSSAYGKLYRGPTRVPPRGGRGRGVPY
CDK12/CycK, sequence (O75909 whole entry partner): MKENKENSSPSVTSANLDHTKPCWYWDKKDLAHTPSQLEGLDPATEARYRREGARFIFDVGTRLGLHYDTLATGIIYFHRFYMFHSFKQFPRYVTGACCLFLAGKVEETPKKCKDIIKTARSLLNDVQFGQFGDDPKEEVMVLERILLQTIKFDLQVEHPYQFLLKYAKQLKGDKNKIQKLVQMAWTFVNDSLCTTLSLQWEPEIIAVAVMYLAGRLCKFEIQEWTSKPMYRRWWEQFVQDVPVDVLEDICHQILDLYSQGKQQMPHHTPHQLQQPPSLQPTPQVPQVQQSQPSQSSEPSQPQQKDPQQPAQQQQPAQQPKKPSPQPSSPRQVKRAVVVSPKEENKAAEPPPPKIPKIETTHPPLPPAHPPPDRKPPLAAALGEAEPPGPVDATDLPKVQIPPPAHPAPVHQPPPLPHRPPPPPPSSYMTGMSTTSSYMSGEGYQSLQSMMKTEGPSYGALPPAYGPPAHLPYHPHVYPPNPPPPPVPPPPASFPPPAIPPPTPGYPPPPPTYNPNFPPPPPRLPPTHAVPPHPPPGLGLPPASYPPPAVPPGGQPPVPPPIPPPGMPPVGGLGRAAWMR

On to `CN(C)C/C=C/C(=O)N1CCC[C@@H](C(=O)N2CCC(c3cc4c(-c5cnn6ncccc56)ccnc4[nH]3)C2)C1` (stereo partly drawn) [Example 72, (E)-4-(Dimethylamino)-1-((3R)-3-(3-(4-(pyrazolo[1,5-b]pyridazin-3-yl)-1H-pyrrolo[2,3-b]pyridin-2-yl)pyrrolidine-1-carbonyl)piperidin-1-yl)but-2-en-1-one], for which the IC50 in the assay with DM1 fibroblasts was 1000 to 10000 nM; at CDK12/CycK it was 100 to 1000 nM.
On to `C=CC(=O)Nc1cccc(C(=O)N2CCN(Cc3cc4c(-c5cnn6ncccc56)ccnc4[nH]3)CC2)c1` [Example 111, N-(3-(4-((4-(Pyrazolo[1,5-b]pyridazin-3-yl)-1H-pyrrolo[2,3-b]pyridin-2-yl)methyl)piperazine-1-carbonyl)phenyl)acrylamide], for which the figures for the IC50 in the assay on DM1 fibroblasts and on CDK12/CycK were 1000 to 10000 nM and 100 to 1000 nM, respectively.
Take `O=C(CCl)Nc1cccc(C(=O)N2CC[C@@H](c3cc4c(-c5cnn6ncccc56)ccnc4[nH]3)C2)c1` [Example 159, (R)-2-Chloro-N-(3-(3-(4-(pyrazolo[1,5-b]pyridazin-3-yl)-1H-pyrrolo[2,3-b]pyridin-2-yl)pyrrolidine-1-carbonyl)phenyl)acetamide]: the values for the IC50 with DM1 fibroblasts and at CDK12/CycK were under 1000 nM and under 100 nM, respectively.
For the molecule `C=CC(=O)Nc1ccc(C(=O)N2CCC(c3cc4c(-c5cnn6ncccc56)ccnc4[nH]3)C2)cc1` (centres unmarked) [Example 126, N-(4-(3-(4-(Pyrazolo[1,5-b]pyridazin-3-yl)-1H-pyrrolo[2,3-b]pyridin-2-yl)pyrrolidine-1-carbonyl)phenyl)acrylamide], the IC50 is under 1000 nM with DM1 fibroblasts and under 100 nM on CDK12/CycK.
For `Cc1cc2c(-c3cnn4ncccc34)ccnc2[nH]1` [Example 27, 3-(2-Methyl-1H-pyrrolo[2,3-b]pyridin-4-yl)pyrazolo[1,5-b]pyridazine], the figures for the IC50 in the assay with DM1 fibroblasts and at CDK12/CycK were under 1000 nM and 100 to 1000 nM, respectively.
Consider `C=CC(=O)N1CCCC[C@H]1C(=O)NCCc1cc2c(-c3cnn4ncccc34)ccnc2[nH]1` [Example 92, (S)-1-Acryloyl-N-(2-(4-(pyrazolo[1,5-b]pyridazin-3-yl)-1H-pyrrolo[2,3-b]pyridin-2-yl)ethyl)piperidine-2-carboxamide], for which the IC50 in the assay with DM1 fibroblasts was 1000 to 10000 nM; on CDK12/CycK, under 100 nM.
Take `CC(C)=CC(=O)N1CCC[C@H]1C(=O)NCCc1cc2c(-c3cnn4ncccc34)ccnc2[nH]1` [Example 42, (S)-1-(3-Methylbut-2-enoyl)-N-(2-(4-(pyrazolo[1,5-b]pyridazin-3-yl)-1H-pyrrolo[2,3-b]pyridin-2-yl)ethyl)pyrrolidine-2-carboxamide]: the IC50 with DM1 fibroblasts lay within 1000 to 10000 nM; at CDK12/CycK it was 100 to 1000 nM.
On to `c1cc(-c2ccc3cn[nH]c3c2)c2cc[nH]c2n1` [Example 20, 6-(1H-Pyrrolo[2,3-b]pyridin-4-yl)-1H-indazole], for which the IC50 in the assay with DM1 fibroblasts lay in the range of 10000 to 100000 nM; on CDK12/CycK, 100 to 1000 nM.
On the same counts, the results for `CC(C)(CCl)C(=O)N1CCC[C@H]1C(=O)NCCc1cc2c(-c3cnn4ncccc34)ccnc2[nH]1` [Example 45, (S)-1-(3-Chloro-2,2-dimethylpropanoyl)-N-(2-(4-(pyrazolo[1,5-b]pyridazin-3-yl)-1H-pyrrolo[2,3-b]pyridin-2-yl)ethyl)pyrrolidine-2-carboxamide] are 10000 to 100000 nM and 100 to 1000 nM.
For `C=CC(=O)Nc1cccc(C(=O)N2CC[C@H](c3cc4c(-c5cnn6ncccc56)ccnc4[nH]3)C2)c1` [Example 151, (S)—N-(3-(3-(4-(Pyrazolo[1,5-b]pyridazin-3-yl)-1H-pyrrolo[2,3-b]pyridin-2-yl)pyrrolidine-1-carbonyl)phenyl)acrylamide], in that order: under 1000 nM and under 100 nM.
As for `CN(C)C/C=C/C(=O)N1CC[C@@H](OCC(=O)N2CCC(c3cc4c(-c5cnn6ncccc56)ccnc4[nH]3)C2)C1` (stereo partly drawn) [Example 71, (E)-4-(Dimethylamino)-1-((3R)-3-(2-oxo-2-(3-(4-(pyrazolo[1,5-b]pyridazin-3-yl)-1H-pyrrolo[2,3-b]pyridin-2-yl)pyrrolidin-1-yl)ethoxy)pyrrolidin-1-yl)but-2-en-1-one], the IC50 in the assay with DM1 fibroblasts fell in the range of 1000 to 10000 nM; on CDK12/CycK, 100 to 1000 nM.
In the case of `O=C([C@H]1CCCN1C(=O)CCl)N1CCC(c2cc3c(-c4cnn5ncccc45)ccnc3[nH]2)C1` (stereo partly drawn) [Example 156, 2-Chloro-1-((2R)-2-(3-(4-(pyrazolo[1,5-b]pyridazin-3-yl)-1H-pyrrolo[2,3-b]pyridin-2-yl)pyrrolidine-1-carbonyl)pyrrolidin-1-yl)ethan-1-one], the figures for the IC50 with DM1 fibroblasts and on CDK12/CycK were under 1000 nM and under 100 nM, respectively.
For `CNC(=O)c1cc2c(-c3cnn4ncccc34)ccnc2[nH]1` [Example 7, N-Methyl-4-(pyrazolo[1,5-b]pyridazin-3-yl)-1H-pyrrolo[2,3-b]pyridine-2-carboxamide], in that order: 1000 to 10000 nM and 100 to 1000 nM.
